Measurements as given in paper PMC7464537, “Jaceidin Flavonoid Isolated from Chiliadenus montanus Attenuates Tumor Progression in Mice via VEGF Inhibition: In Vivo and In Silico Studies” (Plants, 2020).

What was measured:
[1] = test system: human melanocyte (normal cell line) (HFB-4); test: SRB cytotoxicity assay, normal cell line; assay type: cell-based; details: 48 h incubation, triplicate, ±SD
Description: (§1) The cytotoxic activity of the isolated compounds was measured in vitro against a human liver cancer cell line (HEPG2), a human breast cancer cell line (MCF-7) and a human melanocyte (normal cell line) (HFB-4) in comparison to Doxorubicin, using sulforhodamine B (SRB) assay. Human tumor cell lines (MCF-7, HepG2) used in this study were obtained from the American Type Culture collection (ATCC, Manassas, VA, USA). The tumor cell lines were maintained at the National Cancer Institute, Cairo, Egypt, by serial sub culturing. Cells were seeded in 96-well microliter plates at initial concentration of (3 × 10^3 cell/well) in a fresh medium and left for 24 h to attach to the plates before treatment of the tested compounds. Tested compounds were dissolved in DMSO and diluted with saline to the appropriate volume. After 24 h, cells were incubated with the appropriate concentration ranges of drugs (0, 12.5, 25, 50, 100 µg/mL), the wells were diluted to 150 µL with fresh medium and incubation was continued for 48 h at 37 °C. Control cells were treated with vehicle alone. Three wells were used for each drug concentration. After 48 h incubation, the cells were fixed with 50 µL of cold 10% trichloroacetic acid for 1 h at 4 °C, washed 5 times with distilled water using (Automatic Washer Tecan, Heidelberg, Germany) and then stained for 30 min at room temperature with 50 µL 0.4% SRB dissolved in 1% acetic acid. The wells were then washed 4 times with 1% acetic acid. The plates were air dried and the dye was solubilized with 100 µL/well 10 mM tris base (pH = 10.5). The Optical density (O.D.) of each well was measured spectrophotometrically at 570 nm with an ELISA microplate reader (sunrise Tecan reader, Germany). The percentage of cell survival was calculated as follows:(1) Surviving fraction=O.D.(treated cells)/O.D.(control cells)
(§2) The relation between surviving fraction and compound concentration was plotted to get the survival curve for tumor cell line after the specified time.

[2] = test system: liver cancer cell line (HepG2); test: SRB cytotoxicity assay, liver cancer cell line; assay type: cell-based; details: Homo sapiens, 48 h incubation, triplicate, ±SD
Description: as §1, §2

[3] = test system: breast cancer cell line (MCF-7); test: SRB cytotoxicity assay, breast cancer cell line; assay type: cell-based; details: Homo sapiens, MCF7, 48 h incubation, triplicate, ±SD
Description: as §1, §2

[4] = test system: GSH and MDA levels in tumor tissues; test: ELISA of GSH and MDA levels in tumor homogenates; assay type: in vivo, female Swiss albino mice; details: extract 200 mg/kg or jaceidin 50 mg/kg three times weekly
Description: (§3) Groups 1: mice treated with saline (5 mL/kg). All therapies continued for 21 days. Group 2: mice treated with C. montanus extract 200 mg/kg three times weekly. Group 3: mice treated with Jaceidin 50 mg/kg three times weekly.
(§4) One day after the end of the experiment (day 21), mice were subjected to light ether anesthesia and sacrificed by cervical dislocation; blood samples were collected by cardiac puncture. Blood samples were maintained at room temperature for 30 min and centrifuged at 12,000× g for 10 min. Then, sera were separated and stored at −20 °C until used. An ELISA kit (Sun Red Biotechnology Company, Shanghai, China) was employed for estimating serum VEGF level according to the manufacturer’s protocol. The color intensity was measured at 450 nm using an automated ELISA reader (Europe S.A., Belgium). Tumor was dissected into two halves; the first half was kept at −20 °C to be used in estimating MDA and GSH levels. The second half was cut into small pieces, then fixed in 10% phosphate-buffered formalin for histopathological examination.
Using a frozen sample, a part of tumor was weighted and homogenized as 10% (w/v) in phosphate-buffered saline using a Teflon homogenizer (Glass col homogenizer system, Vernon Hills, IL, USA). Homogenates were then centrifuged at 15,000× g for 10 min at 4 °C. After centrifugation, the supernatants were collected into 2 dry tubes and kept at −80 °C. The levels of MDA and GSH were determined in the tumor homogenates of […] using ELISA kits for MDA (Catalog No. MBS741034) and GSH (Catalogue Number: MBS026635) according to the manufacturer’s instructions.

[5] = test system: vascular endothelial growth factor B (VEGF-B); test: ELISA of serum VEGF level in EAC-bearing mice; assay type: in vivo, female Swiss albino mice; details: extract 200 mg/kg or jaceidin 50 mg/kg three times weekly
Description: as §3, §4

[6] = test system: Ehrlich's ascites carcinoma (EAC) solid tumors; test: In vivo antitumor activity: tumor weight and histopathology of EAC solid tumors; design: species or system female Swiss albino mice; details: extract 200 mg/kg or jaceidin 50 mg/kg three times weekly
Excerpt: Female Swiss albino mice with original body weight of 20–26 g and age of 8–10 weeks was used in the current experiment and fixed housing conditions were maintained at a normal dark/light cycle. Mice were housed in groups of six in polyethylene cages where food and water were provided ad libitum. The Research Ethics Committee at the Faculty of Pharmacy, Suez Canal University (license number 201809RA1), approved the study of protocol. Ehrlich’s Ascites Carcinoma is commonly employed as a solid form and easy to grow in suspension, when injected in the peritoneal cavity of female mice. Mice carrying the EAC cell line were obtained from the Department of Tumor Biology at the National Cancer Institute (Cairo, Egypt). The viability of EAC cells was ensured employing Trypan blue dye exclusion method. Then, EAC cells suspension was prepared in sterile saline solution to get a final working suspension; each 0.1 mL of which contained 2.5 million of EAC cells. At the beginning of the experiment, mice were shaved at their back, and inoculated with 0.1 mL of the EAC suspension.
Seven days after inoculation with the tumor cells in all female mice, mice were randomly divided into three groups, ten mice in each. The different treatments were started as follows;
as §3, §4
After fixation, samples were dehydrated in ascending grades of ethyl alcohol, cleared in xylol, embedded in paraffin wax, and then subjected to routine histopathological procedures. Sectioning was done at 5–7 µm thick followed by staining with Hematoxylin and Eosin (H&E). Digital imaging of representative areas was captured using image capture engine software (AMT V600.259) which attached to Olympus CX 41biocular microscope. Histopathological analysis of the digital images of solid tumor was performed by quantities the mitotic figures and tumor giant cells. For counting, ten sections from each experimental group were analyzed at scale bar 20 µm by using image J software that was developed by the National Institute of Health (Betheda, MD, USA). Histopathological examinations were evaluated blindly.

[7] = EAC solid tumors in female mice, 21 days

SMILES: C=C(C)[C@@H]1CC[C@]2(C)CCC[C@](C)(O)[C@H]2C1 [Compound 1, Intermedeol]
- IC50 [1]: > 200 µM
- IC50 [2]: 48.2 ± 0.3 µM
- IC50 [3]: 45.6 ± 0.5 µM

SMILES: C=C1CCC[C@]2(C)CCC(C(C)(C)O)C[C@@]12OO (stereo partly drawn) [Compound 2, 5α-hydroperoxy-β-eudesmol]
- IC50 [1]: > 200 µM
- IC50 [2]: 39.7 ± 0.65 µM
- IC50 [3]: 41.5 ± 0.55 µM

SMILES: COc1ccc(-c2oc3cc(O)cc(O)c3c(=O)c2OC)cc1OC [Compound 3, 5,7-dihydroxy-3,3’,4’-trimethoxyflavone]
- IC50 [1]: > 200 µM
- IC50 [2]: 30.5 ± 0.61 µM
- IC50 [3]: 10.7 ± 0.4 µM

SMILES: COc1cc(-c2oc3cc(O)c(OC)c(O)c3c(=O)c2OC)ccc1O [Compound 4, 5,7,4’-trihydroxy-3,6,3’-trimethoxyflavone]
- GSH levels in tumor tissues ([4]; mean ± SD, tumor control 11.62 ± 1.96): 29.25 ± 3.36
- MDA levels in the tumor tissues ([4]; mean ± SD, tumor control 15.18 ± 1.89): 4.25 ± 1.28
- GSH increase compared to tumor control ([4]; tumor tissues): 2.5 folds
- MDA decrease compared to tumor control ([4]; tumor tissues): 72%
- IC50 [1]: > 200 µM
- IC50 [2]: 9.7 ± 0.26 µM
- serum VEGF decrease compared to tumor control [5]: 61.7%
- serum VEGF levels ([5]; mean ± SD, tumor control 71.46 ± 1.88): 27.3 ± 2.82
- IC50 [3]: 9.3 ± 0.3 µM
- mean tumor weight [6, 7]: 0.032 g
- tumor weight decrease compared to tumor control [6, 7]: 96.4%
- necrosis in the tumor tissues ([6]; H&E histopathology, mean ± SD, tumor control 3.46 ± 0.68): 1.63 ± 0.68
- number of tumor giant cells in the tumor tissues ([6]; H&E histopathology, mean ± SD, tumor control 7.65 ± 2.48): 1.30 ± 1.08
- number of mitotic figures in the tumor tissues ([6]; H&E histopathology, mean ± SD, tumor control 31.45 ± 5.46): 5.20 ± 2.35
- mitotic figure decrease compared to tumor control ([6]; H&E histopathology): 83.47%
- necrosis decrease compared to tumor control ([6]; H&E histopathology): 53.01%
- tumor giant cell decrease compared to tumor control ([6]; H&E histopathology): 83%

SMILES: C=C(C)[C@]1(O)CC[C@]2(C)[C@H](O)CC[C@](C)(O)[C@@H]2C1 [Compound 5, Eudesm-11,13-ene-1β,4β,7α-triol]
- IC50 [1]: > 200 µM
- IC50 [2]: 33.4 ± 0.49 µM
- IC50 [3]: 38.5 ± 0.55 µM

SMILES: CC(C)(O)[C@@]1(O)CC[C@]2(C)C(C1)[C@@](C)(O)CC[C@H]2O (stereo partly drawn) [Compound 6, 1β,4β,7β, 11-tetrahydroxyeudesmane]
- IC50 [1]: > 200 µM
- IC50 [2]: 35.1 ± 0.6 µM
- IC50 [3]: 33.2 ± 0.35 µM

SMILES: COc1cccc2c1C(=O)c1c(O)c3c(c(O)c1C2=O)C[C@@](O)(C(=O)CO)C[C@@H]3O[C@H]1C[C@H](N)[C@H](O)[C@H](C)O1 [Doxorubicin, reference compound]
- IC50 [1]: 14.7 ± 0.5 µM
- IC50 [2]: 4.58 ± 0.47 µM
- IC50 [3]: 4 ± 0.25 µM
